Tests used:
[1] = Hydroxyapatite (HAP) affinity, chromatographic retention on HAP column; assay type: physicochemical; conditions: phosphate buffer gradient 1 mM to 1000 mM, pH 6.8, longer retention = higher mineral affinity
[2] = biological target: T1, human farnesyl pyrophosphate synthase (FPPS) (Homo sapiens, UniProt P14324); experiment: FPPS inhibition; assay type: biochemical; conditions: recombinant human FPPS; for IC50: after pre-incubation; for Ki: read-out: FPPS inhibition Ki (final inhibition constant)
T1 construct: made in house
T1 sequence (P14324 67-419 limits assumed): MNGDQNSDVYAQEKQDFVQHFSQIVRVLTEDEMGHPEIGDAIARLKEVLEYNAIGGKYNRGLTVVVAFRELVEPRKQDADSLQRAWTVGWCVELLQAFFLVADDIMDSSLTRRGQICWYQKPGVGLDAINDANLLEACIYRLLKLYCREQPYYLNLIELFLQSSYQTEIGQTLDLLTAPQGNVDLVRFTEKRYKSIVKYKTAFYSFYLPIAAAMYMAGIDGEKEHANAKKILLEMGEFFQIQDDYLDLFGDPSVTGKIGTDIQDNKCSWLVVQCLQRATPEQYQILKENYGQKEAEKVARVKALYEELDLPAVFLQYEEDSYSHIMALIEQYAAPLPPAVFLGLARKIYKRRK

Sprague Dawley rats = experiment: Schenk model, in vivo bone resorption inhibition (tibial BMD); conditions: rat, subcutaneous once daily for 7 days; dose increasing proximal tibial BMD 20% over control
Method: The compounds were evaluated for in vivo bone resorption inhibition and mineralization inhibition in an animal model system known in the field of bone metabolism as the Schenk Model. The general principles of this model system are disclosed in Shinoda et al., Calcif. Tissue Int., 35: 87-99 (1983); and in Schenk et al., Calcif. Tissue Res. 11: 196-214 (1973), the disclosures of which are incorporated herein by reference in their entireties.
Animals: Weanling male Sprague Dawley rats (Charles River Breeding Laboratories, Raleigh, N.C.) approximately 6 weeks old with weights ranging between 120 and 150 grams were placed into groups based on body weight, with 6 animals per group. All groups received treatment by subcutaneous injection (SQ) once daily (QD) for 7 days.
Dose Solutions and Dosing Procedure: On day 0, all animals received an injection of 3% xylenol orange (90 mg/kg; Sigma) in normal saline, pH adjusted to 7.4. On day 4 all animals were given a subcutaneous injection of 1% Calcein (10 mg/kg, Sigma) in 0.9% NaCl solution to label the skeleton. The first treatment was on day 0, and the last treatment on day 6, with animals euthanized on day 7. Concentrations were based on dosing 0.2 ml/100 g body weight. Compounds were administered at doses ranging from 0.0001 to 1 mg P/kg/day for 7 days at semi-log doses. The dose range was based on the IC 50 in the FPPS inhibition assay, and on the affinity to hydroxyapatite (HAP Affinity). Three to seven doses were chosen per test compound. Adjustments in dosage based on changes in body weight were made on a daily basis.
Necropsy, Tissue Processing and Histomorphometry: On day 7 after the start of dosing, all animals were euthanized via exsanguination under gas anesthesia and/or CO2. The right tibia and femur were dissected free and placed in 70% ethyl alcohol. The proximal metaphysis of the right tibia was analyzed using dual energy x-ray analysis (DXA). This provides information on changes in both cortical and cancellous bone density. The primary end-point for this study was bone mineral density in the tibia measured using a Hologics QDR-4500 densitometer (Hologics, Inc). Statistical evaluation of data was made using parametric and non-parametric analysis of variance and Wilcoxon's rank sum test to determine a statistically significant effect compared to control animals.
The Schenk model provided data for in vivo bone resorption inhibition by the compounds, see Table 3. Bone mineral density (BMD) was assessed with a Hologics 4500A on a region of the proximal tibial metaphysic. Efficacy of each bisphosphonate was expressed as the percent change from the vehicle control group. The dose that increased bone mineral density (BMD) 20% greater than control was determined via a logistic dose response relationship (SAS), which estimates an efficacy value using all animals in the study, and identified as D20 for comparison of bisphosphonates across studies. (Lundy et al., J. Bone Min. Res. 22(Suppl 1): S443, (2007)). Data from compounds run in multiple studies was averaged.

[3] = system: collagen induced arthritis (CIA) rat; experiment: Collagen induced arthritis (CIA) rat model, bone resorption scores; assay type: in vivo
Method: The collagen induced arthritis (CIA) rat model is an in vivo model that provides for an evaluation of the inhibition of inflammation as well as inhibition of bone erosion. The study was performed according to the method of Bendele et al., Arthritis & Rheumatism, 43: 2648-2659 (2000), incorporated herein by reference in its entirety, with the exception that male animals were used instead of female animals.
Arthritis was induced in rats by injecting collagen on days 0 and 6. The bisphosphonate compound of Example 4 (1-fluoro-2-(imidazo-[1,2-α]pyridin-3-yl)-ethyl-bisphosphonic acid) was administered at four different dosages (1.57 μg/kg, 15.69 μg/kg, 156.9 μg/kg, and 523.0 μg/kg; n=10/group) by subcutaneous injection on day 0, and compared to vehicle control (n=10). An additional group was administered 10 mg/kg Enbrel® (n=10) on days 9, 12, and 15 as a positive control. The study was stopped on day 17 and the animals were evaluated for ankle thickness and paw weight, indices of inflammation. The ankle and knees were removed as one piece, placed in formalin, decalcified and processed for histology. Sections were stained with toluidine blue and graded for inflammation, pannus and cartilage degradation on a score of 0 (normal) to 5 (severe). Bone erosion was also scored in the ankle and knee on a 0-5 score.

Row | HAP Affinity Retention time [1] [min] | IC50 [2] [nM] | Ki [2] [nM] | Structure (SMILES) | Schenk D20 (mg P/kg) 20% > BMD than control (Sprague Dawley rats) [mg P/kg] | ankle bone resorption score, dose response ([3]; single subcutaneous injection day 0, 1.57-523.0 μg/kg, scored day 17 (FIG. 9)) | knee bone resorption score, dose response ([3]; single subcutaneous injection day 0, 1.57-523.0 μg/kg, scored day 17 (FIG. 10)) | knee bone resorption score, decrease relative to vehicle ([3]; three highest dosage levels (15.69 μg/kg, 156.9 μg/kg and 523.0 μg/kg), p=0.05 (FIG. 10)) | ankle bone resorption score, decrease relative to vehicle ([3]; two highest dosage levels (156.9 μg/kg and 523.0 μg/kg), p=0.05 (FIG. 9))
1 | 6.3 | 106 | 17.5 | O=P(O)(O)C(Cc1cnc2ccc(F)cn12)P(=O)(O)O [compound 34, [2-(6-fluoro-imidazo[1,2-α]pyridin-3-yl)-ethyl]-bisphosphonic acid] | – | – | – | – | –
2 | 6.6 | 39.7 | 6.1 | Cc1ccn2c(CC(P(=O)(O)O)P(=O)(O)O)cnc2c1 [compound 15, 2-(7-methyl)-imidazo-[1,2-α]pyridin-3-yl-ethyl-bisphosphonic acid] | 0.008 | – | – | – | –
3 | – | – | – | NCCCC(O)(P(=O)(O)O)P(=O)(O)O [Alendronate, reference compound] | 0.0015 | – | – | – | –
4 | 4.83 | 27 | 2.5 | CCc1nc2ccccn2c1CC(P(=O)(O)O)P(=O)(O)O [compound 75, [(2-ethyl-imidazo[1,2-α]pyridin-3-yl)-methyl]-bisphosphonic acid] | – | – | – | – | –
5 | 6.6 | 380 | 64 | Cc1ccc2ncc(CC(P(=O)(O)O)P(=O)(O)O)n2c1 [compound 81, 2-(6-methylimidazo-[1,2-α]pyridin-3-yl)-ethyl-bisphosphonic acid] | – | – | – | – | –
6 | 6.6 | 2.59 | 0.013 | O=P(O)(O)C(Cc1cnc2ccccn12)P(=O)(O)O [compound 80, 2-(imidazo-[1,2-α]pyridin-3-yl)-ethyl-bisphosphonic acid] | 0.0006 | – | – | – | –
7 | 6.2 | 60.3 | 9.6 | Cc1ccn2c(CC(F)(P(=O)(O)O)P(=O)(O)O)cnc2c1 [compound 11, 1-fluoro-2-(7-methyl)-imidazo-[1,2-α]pyridin-3-yl-ethyl-bisphosphonic acid] | 0.002 | – | – | – | –
8 | 6.17 | 2.46 | 0.014 | O=P(O)(O)C(F)(Cc1cnc2ccccn12)P(=O)(O)O [compound 23, 1-fluoro-2-(imidazo-[1,2-α]pyridin-3-yl)-ethyl-bisphosphonic acid] | 0.0003 | dose-dependent decrease in bone resorption | dose dependent decrease in bone resorption | statistically different | statistically different
9 | 12.53 | – | – | O=P(O)(O)C(O)(Cn1ccnc1)P(=O)(O)O [Zoledronate, reference compound] | 0.00008 | – | – | – | –
10 | 9.97 | – | – | O=P(O)(O)C(O)(Cc1cccnc1)P(=O)(O)O [Risedronate, reference compound] | 0.00045 | – | – | – | –
11 | 5.3 | 893 | 151 | O=P(O)(O)C(Cc1cnc2c(O)cccn12)P(=O)(O)O [compound 40, [2-(8-hydroxy-imidazo[1,2-α]pyridin-3-yl)-1-ethane]-bisphosphonic acid] | – | – | – | – | –

Row | Structure (SMILES) | HAP Affinity Retention time [1] [min] | IC50 [2] [nM] | Ki [2] [nM] | Schenk D20 (mg P/kg) 20% > BMD than control (Sprague Dawley rats) [mg P/kg] | ankle bone resorption score, dose response ([3]; single subcutaneous injection day 0, 1.57-523.0 μg/kg, scored day 17 (FIG. 9)) | knee bone resorption score, dose response ([3]; single subcutaneous injection day 0, 1.57-523.0 μg/kg, scored day 17 (FIG. 10)) | knee bone resorption score, decrease relative to vehicle ([3]; three highest dosage levels (15.69 μg/kg, 156.9 μg/kg and 523.0 μg/kg), p=0.05 (FIG. 10)) | ankle bone resorption score, decrease relative to vehicle ([3]; two highest dosage levels (156.9 μg/kg and 523.0 μg/kg), p=0.05 (FIG. 9))
12 | O=P(O)(O)C(O)(Cc1cnc2ccccn12)P(=O)(O)O [Minodronate, reference compound] | 10.33 | – | – | 0.0001 | – | – | – | –

Source: patent US8618079B2, “Imidazo[1,2-a] pyridinyl bisphosphonates” (Isis Innovation Limited, priority 2008, dated 2013)
